Assay results taken from the Kinase Knowledgebase extract (Sharma et al. 2016).

Tests used:
[1] = target: EGFR (UniProt P00533)
[2] = target: EGFR (human) (UniProt P00533); conditions: A431
[3] = target: EGFR (mouse) (UniProt P00533); conditions: balb/mk cells
[4] = target: EGFR (human) (UniProt P00533); conditions: a431
[5] = target: EGFR (human) (UniProt P00533); conditions: for inhibition: a431, concentration not given here
[6] = target: EGFR (UniProt P00533); remark: listed apart in the source
[7] = target: EGFR (human) (UniProt P00533); conditions: A431; remark: listed apart in the source
[8] = target: EGFR (UniProt P00533); remark: listed apart in the source

Sequence of EGFR (P00533 whole entry, looked up): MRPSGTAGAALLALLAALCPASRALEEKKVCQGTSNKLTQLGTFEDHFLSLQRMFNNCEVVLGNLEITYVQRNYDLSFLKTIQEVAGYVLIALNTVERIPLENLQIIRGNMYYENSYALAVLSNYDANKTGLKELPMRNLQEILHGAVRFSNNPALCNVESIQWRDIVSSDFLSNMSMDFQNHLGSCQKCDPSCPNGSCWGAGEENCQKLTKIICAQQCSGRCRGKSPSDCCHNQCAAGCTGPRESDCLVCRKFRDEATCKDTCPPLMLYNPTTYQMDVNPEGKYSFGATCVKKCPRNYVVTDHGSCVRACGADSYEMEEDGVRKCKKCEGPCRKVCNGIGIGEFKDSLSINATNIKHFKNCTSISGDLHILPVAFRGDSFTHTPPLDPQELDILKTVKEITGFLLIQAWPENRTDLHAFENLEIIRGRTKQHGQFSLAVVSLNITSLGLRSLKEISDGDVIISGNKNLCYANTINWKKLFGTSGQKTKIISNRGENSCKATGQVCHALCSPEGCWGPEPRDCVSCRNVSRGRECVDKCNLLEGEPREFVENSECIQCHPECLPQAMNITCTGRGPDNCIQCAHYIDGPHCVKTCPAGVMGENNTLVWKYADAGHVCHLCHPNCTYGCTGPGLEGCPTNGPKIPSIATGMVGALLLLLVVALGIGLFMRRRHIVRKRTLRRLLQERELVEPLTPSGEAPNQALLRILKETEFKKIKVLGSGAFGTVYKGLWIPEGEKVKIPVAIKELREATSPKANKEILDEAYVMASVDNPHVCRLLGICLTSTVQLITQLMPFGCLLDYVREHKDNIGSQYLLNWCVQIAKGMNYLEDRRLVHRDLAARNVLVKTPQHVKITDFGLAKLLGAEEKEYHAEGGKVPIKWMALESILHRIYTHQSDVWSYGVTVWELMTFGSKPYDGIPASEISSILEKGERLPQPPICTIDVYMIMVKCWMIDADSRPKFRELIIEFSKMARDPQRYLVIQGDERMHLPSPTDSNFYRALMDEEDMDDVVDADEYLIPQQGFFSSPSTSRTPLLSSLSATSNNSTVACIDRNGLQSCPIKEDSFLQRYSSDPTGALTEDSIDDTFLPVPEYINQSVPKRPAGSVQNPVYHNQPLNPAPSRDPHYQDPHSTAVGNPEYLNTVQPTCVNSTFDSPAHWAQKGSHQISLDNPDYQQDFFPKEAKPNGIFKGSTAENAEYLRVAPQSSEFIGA
Sequence of EGFR (human) (P00533 whole entry, looked up): as above

| Compound | IC50 [2] | IC50 [3] | IC50 [4] | inhibition [5] | also measured |
| --- | --- | --- | --- | --- | --- |
| CC(=S)N/C(C#N)=C/c1ccc(O)c(O)c1 | – | – | – | – | IC50 [1]: 2.4 µM; Ki [1]: 0.85 µM |
| C=C(C)CN1C(=O)C(O)SC1=NN=C1SCC(=O)N1C (centres undefined) | > 100 µM | > 50 µM | > 50 µM | 0% | – |
| O=CN/C=C/c1cc(O)ccc1O | 12.7 µM | – | – | – | Ki [6]: 6 µM |
| C=C(C)CN1C(=O)C(C)SC1=NN=C1SCC(=O)N1C (centres undefined) | > 50 µM | > 50 µM | > 50 µM | 0% | – |
| C=CCN1C(=O)C(CC(=O)O)SC1=NN=C1SCC(=O)N1C (centres undefined) | > 100 µM | > 50 µM | > 50 µM | 0% | – |
| C=CCN1C(=O)C(=C)SC1=NN=C1SCC(=O)N1C | 6 µM | 1.03 µM | 1.51 µM | – | – |
| C=C(C)CN1C(=O)CSC1=NN=C1SCC(=O)N1C | > 50 µM | > 50 µM | > 50 µM | 0% | – |
| C=C(C)CN1C(=O)C(OS(=O)(=O)O)SC1=NN=C1SCC(=O)N1C (centres undefined) | 100 µM | > 50 µM | > 50 µM | 0% | – |
| N#CC(C#N)=Cc1cc(O)cc(O)c1 | 42 µM | – | – | – | IC50 [1]: 35 µM; Ki [1]: 11 µM |
| C=C(C)CN1C(=O)C(CO)SC1=NN=C1SCC(=O)N1C (centres undefined) | > 50 µM | > 50 µM | 41 µM | 0% | – |
| C=C(C)CN1C(=O)C(CN(C)C)SC1=NN=C1SCC(=O)N1C (centres undefined) | 2 µM | 0.98 µM | 1.63 µM | – | – |
| C=CCN1C(=O)C(C)SC1=NN=C1SCC(=O)N1C (centres undefined) | > 50 µM | > 50 µM | > 50 µM | 0% | – |
| C=C(C)CN1C(=O)C(=C)SC1=NN=C1SCC(=O)N1C | 1 µM | 1 µM | 1.55 µM | – | IC50 [7]: 5 µM; IC50 ([5]; a431): 12.5 to 25 µM |
| CCOc1cc(/C=C(/C#N)C(N)=O)cc(Cc2ccccc2)c1O | 9 µM | – | – | – | IC50 [8]: 1 µM; Ki [8]: 2.1 µM |
